Measurements: US20210189341A1, “PLATELET DIAGNOSTIC IMAGING AGENTS” (Cellphire, Inc., priority 2019, published 2021)
Peptide text beside a SMILES is read from it.

Tests used:
platelets = assay: Flow cytometry of FITC-TAT loading into platelets in the presence of platelet anti-aggregation compounds; assay type: cell-based; conditions: 100 μM FITC-TAT, 60 minutes, loading buffer, 37° C.
Procedure: FIG. 3 is a flow cytometry histogram of samples incubated with 100 μM FITC-TAT in the presence of platelet anti-aggregation compounds PGE1, GR144053, and eptifibatide.
Re-suspend platelets in loading buffer (Table 1) or desired incubation solution at a concentration of 500,000 platelets/μL and incubate at 37° C. with low frequency agitation on a rocker for up to 3 hours.
Wash platelets with loading buffer (Table 1) 3× to remove unloaded agents (e.g., FITC-TAT, FITC-labeled magnetic nanoparticles) and use the remaining sample for plate reader, flow cytometer, and/or microscope analysis.
The results for the above formulation are provided herein. A Tecan Infinite M200 Pro plate reader was used for quantification of MRI agent loading. A Novocyte flow cytometer was used to determine both MRI agent loading and percent of platelets effectively loaded. An Olympus microscope was used to visualize the loading into platelets.
Negative controls included 0 μM FITC-TAT in loading buffer and 50 μM fluorescein in loading buffer. All samples were incubated in loading buffer at 37° C. with low frequency agitation on a rocker.

platelets (400 K/μL) = assay: Magnetic resonance imaging of loaded platelet samples; conditions: positive control
Source text: FIGS. 9A-B show a schematic (FIG. 9A) and magnetic resonance imaging (FIG. 9B).
FIGS. 9A-B show a schematic (FIG. 9A) and magnetic resonance imaging (FIG. 9B). […] Sample 1A included loading buffer and platelets (400 K/μL), sample 1B included loading buffer alone, sample 2A included loading buffer, Gd-DOTA-CPP-FITC, and platelets (400 K/μL), and sample 2B included loading buffer and Gd-DOTA-FITC-CPP only (washed) as another negative control.

Structure (SMILES)	effect of anti-aggregation compound on platelet loading / distribution of FITC-CPP (flow cytometry histogram) (platelets)	detection by magnetic resonance imaging (platelets (400 K/μL); 100 μM)	detection by magnetic resonance imaging (platelets (400 K/μL); 100 mM)
Cl.Cl.Cl.N=C(N)c1ccc(N2CCN(C3CCN(CC(=O)O)CC3)CC2)cc1 [GR144053]	little to no effect	–	–
[Cl][Gd]([Cl])[Cl] [GdCl3]	–	detection	detection
CCCCC[C@H](O)/C=C/[C@H]1[C@H](O)CC(=O)[C@@H]1CCCCCCC(=O)O [PGE1, Prostaglandin E1]	improved platelet loading	–	–
N=C(N)NCCCC[C@@H]1NC(=O)CCSSC[C@@H](C(N)=O)NC(=O)[C@@H]2CCCN2C(=O)[C@H](Cc2c[nH]c3ccccc23)NC(=O)[C@H](CC(=O)O)NC(=O)CNC1=O [eptifibatide] (HELM PEPTIDE1{[O=C(CCS[*:3])[*:2]].[N=C(N)NCCCC[C@H](N[*:1])C(=O)[*:2]].G.D.W.P.C.[am]}$PEPTIDE1,PEPTIDE1,1:R3-7:R3$$$V2.0)	little to no effect	–	–
